These molecules were tested against T1, human β2 adrenergic receptor (Homo sapiens, UniProt P07550) (assay: Cell based cAMP β2 assay (cAMP-Flashplate, CHOhβ2 cells)). Details: CHO cells recombinantly expressing the human β2 adrenergic receptor.
T1 construct: expressed in transfected cells; host or cells: CHO (Chinese Hamster Ovary) cells, CHOhβ2
T1 sequence (P07550 whole entry): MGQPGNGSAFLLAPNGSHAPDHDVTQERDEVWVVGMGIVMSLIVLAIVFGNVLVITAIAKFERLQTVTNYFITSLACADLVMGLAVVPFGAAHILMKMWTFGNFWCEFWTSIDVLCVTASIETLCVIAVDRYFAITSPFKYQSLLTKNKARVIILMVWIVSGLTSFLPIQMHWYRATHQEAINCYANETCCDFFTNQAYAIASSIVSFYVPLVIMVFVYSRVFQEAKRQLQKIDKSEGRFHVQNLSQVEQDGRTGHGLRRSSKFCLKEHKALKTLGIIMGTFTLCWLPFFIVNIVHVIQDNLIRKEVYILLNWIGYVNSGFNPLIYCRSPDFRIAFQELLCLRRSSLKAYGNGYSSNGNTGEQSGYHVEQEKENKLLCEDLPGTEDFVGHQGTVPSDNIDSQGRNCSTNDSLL
Method: According to another alternative, the agonist potency for the β2 receptor of the compounds of the formula (1) may also be determined by the measure of the concentration of compound according to the present invention required to produce half maximal effect (EC50) for the β2 receptor.
10 mM/100% DMSO (dimethylsulfoxide) stock of compound is diluted to required top dose in 4% DMSO. This top dose is used to construct a 10-point semi-log dilution curve, all in 4% DMSO. […] Data was expressed as % Isoprenaline response.
Cells were seeded to give about 90% confluency for testing.
25 μl/well each dose of compound was transferred into a cAMP-Flashplate® (NEN, SMP004B), with 1% DMSO as basal controls and 100 nM Isoprenaline as max controls. This was diluted 1:2 by the addition of 25 μl/well PBS. […] Compounds were incubated with 50 μu/well cells for 1 hour. […] Dose-response data was expressed as % Isoprenaline activity and fitted using a four parameter sigmoid fit.
Molecule `COc1cccc(OC)c1CNC(=O)Cc1cccc(C[C@@H](C)NC[C@H](O)c2ccc(O)c(CO)c2)c1` [Example 1, N-(2,6-Dimethoxybenzyl)-2-(3-{(2R)-2-[(2R)-2-hydroxy-2-(4-hydroxy-3-hydroxymethyl-phenyl)-ethylamino]-propyl}-phenyl)-acetamide] has an EC50 of 0.017 nM.
`C[C@H](Cc1cccc(CC(=O)NCc2ccccc2O)c1)NC[C@H](O)c1ccc(O)c(CO)c1` [Example 3, N-(2-Hydroxybenzyl)-2-(3-{(2R)-2-[(2R)-2-hydroxy-2-(4-hydroxy-3-hydroxymethyl-phenyl)-ethylamino]-propyl}-phenyl)-acetamide] was tested, and the EC50 was 0.007 nM.
For `C[C@H](Cc1cccc(CC(=O)NC2Cc3ccccc3C2)c1)NC[C@H](O)c1ccc(O)c(CO)c1` [Example 4, 2-(3-{(2R)-2-[(2R)-2-Hydroxy-2-(4-hydroxy-3-hydroxymethyl-phenyl)-ethylamino]-propyl}-phenyl)-N-indan-2-yl-acetamide], the EC50 was 0.012 nM.
Molecule `C[C@H](Cc1cccc(CC(=O)NCc2ccc(Cl)c(Cl)c2)c1)NC[C@H](O)c1ccc(O)c(CO)c1` [Example 5, N-(3,4-Dichlorobenzyl)-2-(3-{(2R)-2-[(2R)-2-hydroxy-2-(4-hydroxy-3-hydroxymethyl-phenyl)-ethylamino]-propyl}-phenyl)-acetamide] has an EC50 of 0.024 nM.
Work on `C[C@H](Cc1cccc(CC(=O)NCc2ccc(S(N)(=O)=O)cc2)c1)NC[C@H](O)c1ccc(O)c(CO)c1` [Example 6, N-[4-(Aminosulfonyl)benzyl]-2-(3-{(2R)-2-[(2R)-2-hydroxy-2-(4-hydroxy-3-hydroxymethyl-phenyl)-ethylamino]-propyl}-phenyl)-acetamide] yielded an EC50 of 0.007 nM.
Molecule `C[C@H](Cc1cccc(CC(=O)NCc2ccccn2)c1)NC[C@H](O)c1ccc(O)c(CO)c1` [Example 7, 2-(3-{(2R)-2-[(2R)-2-Hydroxy-2-(4-hydroxy-3-hydroxymethyl-phenyl)-ethylamino]-propyl}-phenyl)-N-(pyridin-2-ylmethyl)-acetamide] has an EC50 of 0.028 nM.
In the case of `C[C@H](Cc1cccc(CC(=O)NCc2ccc(C(N)=O)cc2)c1)NC[C@H](O)c1ccc(O)c(CO)c1` [Example 8, 4-{(2-(3-{(2R)-2-[(2R)-2-Hydroxy-2-(4-hydroxy-3-hydroxymethyl-phenyl)-ethylamino]-propyl}-phenyl)-acetylamino)-methyl}-benzamide], the EC50 is reported as 0.01 nM.
`C[C@H](Cc1cccc(CC(=O)NCc2ccc(OC(F)(F)F)cc2)c1)NC[C@H](O)c1ccc(O)c(CO)c1` [Example 10, 2-(3-{(2R)-2-[(2R)-2-Hydroxy-2-(4-hydroxy-3-hydroxymethyl-phenyl)-ethylamino]-propyl}-phenyl)-N-(4-trifluoromethoxybenzyl)-acetamide] gave an EC50 of 0.114 nM.
`Cc1ccc(CNC(=O)Cc2cccc(C[C@@H](C)NC[C@H](O)c3ccc(O)c(CO)c3)c2)cc1C` [Example 12, N-(3,4-Dimethylbenzyl)-2-(3-{(2R)-2-[(2R)-2-hydroxy-2-(4-hydroxy-3-hydroxymethyl-phenyl)-ethylamino]-propyl}-phenyl)-acetamide] showed an EC50 of 0.009 nM.
With `C[C@H](Cc1cccc(CC(=O)NCCc2ccccc2)c1)NC[C@H](O)c1ccc(O)c(CO)c1` [Example 15, 2-(3-{(2R)-2-[(2R)-2-Hydroxy-2-(4-hydroxy-3-hydroxymethyl-phenyl)-ethylamino]-propyl}-phenyl)-N-(2-phenylethyl)acetamide] the EC50 was 0.056 nM.
